The values that follow are results of earlier work, collected in patent US6518254B1, “Ribonucleoside-TRIBOSE” (priority 2002, dated 2003).

For data set [1] the following is noted: compared with Ribavirin.
Another data set has as its system DNA and RNA viruses. To be noted: in vitro tissue culture; at least 16 DNA and RNA viruses; Science, 177, 705, 1972.

`NC(=O)c1ncn([C@H]2O[C@@H](CO)[C@H](O)[C@@H]2O)n1` (single isomer, unassigned) [L isomer of Ribavirin]: the immuno-modulatory activity entry in data set [1] is recorded as “immuno-modulatory activity similar to Ribavirin”.
For `NC(=O)c1ncn([C@@H]2O[C@H](CO)[C@@H](O)[C@H]2O)n1` [Ribavirin, 1-beta-D-ribofuranosyl-1H-1,2,4-triazole-3-carboxamide], the “antiviral activity in tissue culture” value in the data set on DNA and RNA viruses was “active against at least 16 DNA and RNA viruses”.
